Experimental data taken from patent publication US8742106B2 (Novartis AG, priority 2009, dated 2014).

Tests used:
human orexin 2 receptors [1] = molecular target: T1, human orexin 2 receptors (Homo sapiens (Human), UniProt O43614); assay: Calcium Accumulation in Cells (FLIPR), antagonism of orexin A; format: cell-based; details: antagonism of orexin A, Cheng-Prusoff corrected; read-out: FLIPR hOx2R Ki
Method in brief: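 Cells expressing human orexin 2 receptor, loaded with Fluo4-AM (2 μM) plus probenecid (0.1 mM) for 1 h, then washed. Antagonism read as inhibition of the orexin A calcium fluorescence signal (FLIPR).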

human orexin 2 receptors [2] = molecular target: T1, human orexin 2 receptors; assay: Radioligand Binding Assay II ([3H]-SB649868 competition, cell membranes); details: read-out: binding II hOx2R Kd
Protocol: (§1) Radioligand Binding Assay II
(§2) For crude cell membrane preparations, cells (CHO, Chinese hamster ovary or HEK, human embryonic kidney) expressing human orexin 1 or human orexin 2 receptors, were washed with HEPES (10 mM, pH 7.5), scraped off the culture plates with the same buffer, and centrifuged at 4° C. for 5 min at 2500×g. The cell pellet was either stored at −80° C. or used directly. Before the experiments, cell membranes were re-suspended in binding assay buffer (10 mM HEPES, 0.5% (w/v) bovine serum albumin, pH 7.5) by homogenisation with a Polytron homogeniser at 50 Hz for 20 s. Cell membranes were also used as made available by commercial providers.
(§3) Bound radioactivity was measured, and data were analysed with the program XLFIT or Graphpad Prism. Protein concentration was determined according to the Bradford/BioRad Protein Assay Kit.
(§4) In competition experiments, cell homogenates (150 μl) were incubated in assay buffer (10 mM HEPES, pH 7.5, 0.5% (w/v) bovine serum albumin, 5 mM MgCl2, 1 mM CaCl2, and tween 0.05%) for 1 h at room temperature with about 1 nM of the radioligand [^3H]-SB649868, 66 Ci/mmole, 50 μl), and with various concentrations of compounds of the invention (50 μl) in triplicates; non-specific binding was determined in the presence of almorexant (10 μM). Reactions were terminated by vacuum filtration, 3 washes of ice cold wash buffer (Tris-HCl pH 7.4/10 mM, with NaCl 154 mM).

human orexin 1 receptors [3] = molecular target: T2, human orexin 1 receptors (Homo sapiens (Human), UniProt O43613); assay: Calcium Accumulation in Cells (FLIPR), antagonism of orexin A; format: cell-based; details: antagonism of orexin A, Cheng-Prusoff corrected; read-out: FLIPR hOx1R Ki
human orexin 1 receptors [4] = molecular target: T2, human orexin 1 receptors; assay: Radioligand Binding Assay II ([3H]-SB649868 competition, cell membranes); details: read-out: binding II hOx1R Kd
Protocol: as §1, §2, §3
as §4, with “mM). Competition data is expressed in Table 2 as Kd [μM].” for “mM).”

T1 sequence (O43614 whole entry): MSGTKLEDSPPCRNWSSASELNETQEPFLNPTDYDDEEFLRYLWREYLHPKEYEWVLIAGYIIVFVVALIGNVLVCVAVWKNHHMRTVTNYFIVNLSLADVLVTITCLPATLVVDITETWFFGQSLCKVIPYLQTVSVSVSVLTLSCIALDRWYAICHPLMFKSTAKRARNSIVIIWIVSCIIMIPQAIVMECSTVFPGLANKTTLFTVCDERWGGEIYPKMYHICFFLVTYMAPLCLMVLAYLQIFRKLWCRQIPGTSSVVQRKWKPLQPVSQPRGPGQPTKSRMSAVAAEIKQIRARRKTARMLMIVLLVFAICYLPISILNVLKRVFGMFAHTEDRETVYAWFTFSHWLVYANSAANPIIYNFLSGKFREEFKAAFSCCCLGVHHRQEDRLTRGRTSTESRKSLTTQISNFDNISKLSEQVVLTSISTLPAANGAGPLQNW
T2 sequence (O43613 whole entry): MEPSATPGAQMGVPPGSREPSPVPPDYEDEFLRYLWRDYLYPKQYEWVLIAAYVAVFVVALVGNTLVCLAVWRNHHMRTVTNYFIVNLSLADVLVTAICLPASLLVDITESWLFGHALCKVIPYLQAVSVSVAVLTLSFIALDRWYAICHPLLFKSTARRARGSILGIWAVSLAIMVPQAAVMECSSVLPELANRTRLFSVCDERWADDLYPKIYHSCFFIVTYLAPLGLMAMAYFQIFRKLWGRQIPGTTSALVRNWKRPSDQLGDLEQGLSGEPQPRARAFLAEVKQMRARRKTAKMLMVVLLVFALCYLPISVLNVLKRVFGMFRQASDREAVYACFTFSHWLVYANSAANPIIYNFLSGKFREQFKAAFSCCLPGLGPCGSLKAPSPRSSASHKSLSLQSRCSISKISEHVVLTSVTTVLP

Row | Structure (SMILES) | Ki (human orexin 2 receptors [1]) [nM] | Kd (human orexin 2 receptors [2]) [nM] | Ki (human orexin 1 receptors [3]) [nM] | Kd (human orexin 1 receptors [4]) [nM]
1 | Cc1nn(C)c(C)c1C(C)NC(=O)COc1cc(C(F)F)c2c(-c3ccccc3)nn(C)c2n1 (stereo not drawn) [Example 6.20, 2-(4-(difluoromethyl)-1-methyl-3-phenyl-1H-pyrazolo[3,4-b]pyridin-6-yloxy)-N-(1-(1,3,5-trimethyl-1H-pyrazol-4-yl)ethyl)acetamide] | 59 | 90 | 63 | 22
2 | Cc1ccc([C@H](C)NC(=O)COc2cc(C(F)F)c3c(-c4ccccc4)nn(C)c3n2)cc1 [Example 6.21, (S)-2-(4-(difluoromethyl)-1-methyl-3-phenyl-1H-pyrazolo[3,4-b]pyridin-6-yloxy)-N-(1-p-tolylethyl)acetamide] | 7 | 30 | 29 | 37
3 | COc1ccc(C(C)NC(=O)COc2cc(C(F)F)c3c(-c4ccccc4)nn(C)c3n2)cn1 (stereo not drawn) [Example 6.22, 2-(4-(difluoromethyl)-1-methyl-3-phenyl-1H-pyrazolo[3,4-b]pyridin-6-yloxy)-N-(1-(6-methoxypyridin-3-yl)ethyl)acetamide] | 37 | 42 | 175 | 56
4 | COc1ccccc1-c1nn(C)c2nc(OCC(=O)N[C@@H](C)c3ccc(C)cc3)ccc12 [Example 6.24, (S)-2-(3-(2-methoxyphenyl)-1-methyl-1H-pyrazolo[3,4-b]pyridin-6-yloxy)-N-(1-p-tolylethyl)acetamide] | 105 | 150 | 133 | 45
5 | Cc1ccc([C@H](C)NC(=O)COc2ccc3c(C(C)(C)C)nn(C)c3n2)cc1 [Example 6.25, (S)-2-(3-tert-butyl-1-methyl-1H-pyrazolo[3,4-b]pyridin-6-yloxy)-N-(1-p-tolylethyl)acetamide] | 65 | 164 | 545 | 242
6 | Cc1ccc([C@H](C)NC(=O)COc2cc(C)c3c(C(C)C)nn(C)c3n2)cc1 [Example 6.26, (S)-2-(3-isopropyl-1,4-dimethyl-1H-pyrazolo[3,4-b]pyridin-6-yloxy)-N-(1-p-tolylethyl)acetamide] | 32 | 76 | 164 | 119
7 | Cc1ccc([C@H](C)NC(=O)COc2cc(C)c3c(-c4cc(C)oc4C)nn(C)c3n2)cc1 [Example 6.30, (S)-2-(3-(2,5-dimethylfuran-3-yl)-1,4-dimethyl-1H-pyrazolo[3,4-b]pyridin-6-yloxy)-N-(1-p-tolylethyl)acetamide] | 62 | 168 | 10 | 19
8 | COc1ccc([C@H](C)NC(=O)COc2cc(C)c3c(-c4cc(C)oc4C)nn(C)c3n2)cc1 [Example 6.31, (S)-2-(3-(2,5-dimethylfuran-3-yl)-1,4-dimethyl-1H-pyrazolo[3,4-b]pyridin-6-yloxy)-N-(1-(4-methoxyphenyl)ethyl)acetamide] | 47 | 221 | 18 | 40
9 | Cc1cc(-c2nn(C)c3nc(OCC(=O)NC(C)c4c(C)nn(C)c4C)cc(C)c23)c(C)o1 (stereo not drawn) [Example 6.33, 2-(3-(2,5-dimethylfuran-3-yl)-1,4-dimethyl-1H-pyrazolo[3,4-b]pyridin-6-yloxy)-N-(1-(1,3,5-trimethyl-1H-pyrazol-4-yl)ethyl)acetamide] | 170 | 126 | 11 | 14
10 | COc1ccc([C@H](C)NC(=O)COc2cc(C)c3c(-c4ccoc4C)nn(C)c3n2)cc1 [Example 6.34, (S)-2-(1,4-dimethyl-3-(2-methylfuran-3-yl)-1H-pyrazolo[3,4-b]pyridin-6-yloxy)-N-(1-(4-methoxyphenyl)ethyl)acetamide] | 113 | 188 | 103 | 70
11 | COc1ccnc(-c2nn(C)c3nc(OCC(=O)N[C@@H](C)c4ccc(C)cc4)cc(C)c23)c1 [Example 6.37, (S)-2-(3-(4-methoxypyridin-2-yl)-1,4-dimethyl-1H-pyrazolo[3,4-b]pyridin-6-yloxy)-N-(1-p-tolylethyl)acetamide] | 10 | 17 | 7 | 6
12 | Cc1ccc2c(n1)CC[C@@H]2NC(=O)COc1cc(C(F)F)c2c(-c3cc(C)oc3C)nn(C)c2n1 [Example 6.38, (S)-2-(4-(difluoromethyl)-3-(2,5-dimethylfuran-3-yl)-1-methyl-1H-pyrazolo[3,4-b]pyridin-6-yloxy)-N-(2-methyl-6,7-dihydro-5H-cyclopenta[b]pyridin-5-yl)acetamide] | 64 | 271 | 91 | 123
13 | COc1ccc([C@H](C)NC(=O)COc2cc(C(F)F)c3c(-c4cc(C)oc4C)nn(C)c3n2)cc1 [Example 6.39, (S)-2-(4-(difluoromethyl)-3-(2,5-dimethylfuran-3-yl)-1-methyl-1H-pyrazolo[3,4-b]pyridin-6-yloxy)-N-(1-(4-methoxyphenyl)ethyl)acetamide] | 46 | 65 | 15 | 20
14 | Cc1ccc2c(c1)CCC2NC(=O)COc1cc(C)c2c(C3CC3)nn(C)c2n1 (stereo not drawn) [Example 6.41, 2-(3-cyclopropyl-1,4-dimethyl-1H-pyrazolo[3,4-b]pyridin-6-yloxy)-N-(5-methyl-2,3-dihydro-1H-inden-1-yl)acetamide] | 29 | 225 | 495 | 908
15 | COc1ccc2c(c1)CC[C@@H]2NC(=O)COc1cc(C(F)F)c2c(C3CC3)nn(C)c2n1 [Example 6.42, (S)-2-(3-cyclopropyl-4-(difluoromethyl)-1-methyl-1H-pyrazolo[3,4-b]pyridin-6-yloxy)-N-(5-methoxy-2,3-dihydro-1H-inden-1-yl)acetamide] | 10 | 14 | 83 | 63
16 | COc1ccc2c(c1)CC[C@@H]2NC(=O)COc1cc(C(F)(F)F)c2c(C3CC3)nn(C)c2n1 [Example 6.43, (S)-2-(3-cyclopropyl-1-methyl-4-(trifluoromethyl)-1H-pyrazolo[3,4-b]pyridin-6-yloxy)-N-(5-methoxy-2,3-dihydro-1H-inden-1-yl)acetamide] | 3 | 18 | 234 | 206
17 | Cc1ccc2c(c1)CC[C@@H]2NC(=O)COc1cc(C)c2c(C3CC3)nn(C)c2n1 [Example 6.44, (S)-2-(3-cyclopropyl-1,4-dimethyl-1H-pyrazolo[3,4-b]pyridin-6-yloxy)-N-(5-methyl-2,3-dihydro-1H-inden-1-yl)acetamide] | 14 | 28 | 223 | 67
18 | Cc1cc(OCC(=O)NC(C)c2cnc3[nH]ccc3c2)nc2c1c(C1CC1)nn2C (stereo not drawn) [Example 6.57, N-(1-(1H-pyrrolo[2,3-b]pyridin-5-yl)ethyl)-2-(3-cyclopropyl-1,4-dimethyl-1H-pyrazolo[3,4-b]pyridin-6-yloxy)acetamide] | 77 | 170 | 658 | 358
19 | Cc1cc(OCC(=O)NC(C)c2ccc3c(ccn3C)c2)nc2c1c(C1CC1)nn2C (stereo not drawn) [Example 6.59, 2-(3-cyclopropyl-1,4-dimethyl-1H-pyrazolo[3,4-b]pyridin-6-yloxy)-N-(1-(1-methyl-1H-indol-5-yl)ethyl)acetamide] | 63 | 162 | 127 | 70
20 | Cc1ccc2c(n1)CCC2NC(=O)COc1cc(C)c2c(C3CC3)nn(C)c2n1 (stereo not drawn) [Example 6.61, 2-(3-cyclopropyl-1,4-dimethyl-1H-pyrazolo[3,4-b]pyridin-6-yloxy)-N-(2-methyl-6,7-dihydro-5H-cyclopenta[b]pyridin-5-yl)acetamide] | 93 | 159 | 227 | 157
21 | Cc1ccc2c(n1)CC[C@@H]2NC(=O)COc1cc(C)c2c(C3CC3)nn(C)c2n1 [Example 6.63, (S)-2-(3-cyclopropyl-1H-dimethyl-1H-pyrazolo[3,4-b]pyridin-6-yloxy)-N-(2-methyl-6,7-dihydro-5H-cyclopenta[b]pyridin-5-yl)acetamide] | 22 | 42 | 109 | 54
